# Test results as given in article PMC10913484, “Hydroxyhexylitaconic acids as potent IMP-type metallo-β-lactamase inhibitors for controlling carbapenem resistance in Enterobacterales” (Microbiology Spectrum, 2024).
# Like-named read-outs stand apart in the source and are kept apart here.
# Key:
# [1] = molecular target: T1, IMP-1 (Serratia marcescens, UniProt P52699); assay type: binding; details: DSF; control protein 52.5°C
# T1 construct: made in house
# Description: The DSF assay was performed using the Protein Thermal Shift Dye Kit (Thermo Fisher Scientific) and StepOnePlus Real-Time PCR Systems (Applied Biosystems) as follows: 2 µL of IMP-1 enzyme (100 µM), 1 µL of EDTA or HHIA solution (5 mM), 2.5 µL of diluted Protein Thermal Shift Dye (32×), 5 µL of Protein Thermal Shift buffer, and 9.5 µL of water were mixed in a test tube and incubated for 15 min at 4°C. Four replicates of each sample were performed. The fluorescence was monitored at 0.7°C increments from 4°C to 99°C. The relative fluorescence units were fitted with the Boltzmann equation using the TSA-CRAFT software to determine the melting point (Tm) ([47]).
# [2] = test system: SMB-1; experiment: In vitro inhibition assay (IPM hydrolysis); assay type: biochemical; details: even at high doses (100 µM)
# Description: (§1) MBLs were incubated with HHIAs in 20 mM HEPES buffer (pH 7.5) containing 200 mM NaCl and 50 µg/mL BSA at 30°C for 5 min. IPM was added at a concentration of 100 µM, and the rate of IPM hydrolysis was monitored at 297 nm. The initial velocity (v0) rates were plotted against HHIA’s logarithmic concentrations, and the data were fitted to a four-parameter variable slope to obtain the half-maximal inhibitor concentration (IC50) values using GraphPad Prism 9 software (GraphPad Software). The inhibition constant (Ki) was determined as follows: v0 was measured after varying the concentrations of IPM and HHIAs, and inverse v0 (1/v0) was plotted against the inverse IPM concentration [1/(IPM)]. Lineweaver–Burk plots were created to obtain Ki values under the competitive inhibition model using the SigmaPlot 14 suite (Hulinks).
# [3] = molecular target: T2, VIM-2 (Escherichia coli, UniProt Q5U7L7); experiment: In vitro inhibition assay (IPM hydrolysis); assay type: biochemical
# T2 construct: made in house
# Description: as §1
# [4] = molecular target: T3, IMP-6 (Serratia marcescens, UniProt P52699, S214G); experiment: In vitro inhibition assay (IPM hydrolysis); assay type: biochemical
# T3 construct: made in house
# T3 sequence (P52699 19-246 S214G): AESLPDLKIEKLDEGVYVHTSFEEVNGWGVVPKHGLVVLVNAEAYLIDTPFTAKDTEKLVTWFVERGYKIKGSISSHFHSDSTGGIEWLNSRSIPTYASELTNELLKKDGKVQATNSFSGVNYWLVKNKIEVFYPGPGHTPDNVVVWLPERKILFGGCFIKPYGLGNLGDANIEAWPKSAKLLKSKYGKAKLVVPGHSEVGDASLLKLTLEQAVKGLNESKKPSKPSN
# Description: as §1
# [5] = test system: K. pneumoniae MS5674 (NDM-1/VIM-1); experiment: Susceptibility test, clinical isolate; assay type: cell-based; details: Klebsiella pneumoniae
# Description: (§2) Susceptibility testing, based on the microdilution method, was performed according to the guidelines of the Clinical and Laboratory Standards Institute ([36]).
# [6] = test system: E. coli NUBL-24 (IMP-1); experiment: Susceptibility test, clinical isolate; assay type: cell-based; details: Escherichia coli
# Description: as §2
# [7] = test system: E. coli 465 (IMP-1); experiment: Susceptibility test, clinical isolate; assay type: cell-based; details: Escherichia coli
# Description: as §2
# [8] = test system: P. penneri E11-M475 (IMP-1); experiment: Susceptibility test, clinical isolate; assay type: cell-based; details: Proteus penneri
# Description: as §2
# [9] = test system: K. pneumoniae AR0034 (IMP-4); experiment: Susceptibility test, clinical isolate; assay type: cell-based; details: Klebsiella pneumoniae, K. pneumoniae AR0034 (IMP-4)
# Description: as §2
# [10] = test system: K. pneumoniae NUBL-8 (IMP-1); experiment: Susceptibility test, clinical isolate; assay type: cell-based; details: Klebsiella pneumoniae
# Description: as §2
# [11] = test system: K. pneumoniae AR0076 (VIM-1); experiment: Susceptibility test, clinical isolate; assay type: cell-based; details: Klebsiella pneumoniae
# Description: as §2
# [12] = test system: E. coli NUBL-22 (IMP-6); experiment: Susceptibility test, clinical isolate; assay type: cell-based; details: Escherichia coli
# Description: as §2
# [13] = test system: K. oxytoca NUBL-827 (IMP-1); experiment: Susceptibility test, clinical isolate; assay type: cell-based; details: Klebsiella oxytoca
# Description: as §2
# [14] = test system: E. coli 426 (IMP-1); experiment: Susceptibility test, clinical isolate; assay type: cell-based; details: Escherichia coli
# Description: as §2
# [15] = test system: E. cloacae NUBL-5 (IMP-1); experiment: Susceptibility test, clinical isolate; assay type: cell-based; details: Enterobacter cloacae
# Description: as §2
# [16] = test system: K. pneumoniae NUBL-23 (IMP-6); experiment: Susceptibility test, clinical isolate; assay type: cell-based; details: Klebsiella pneumoniae
# Description: as §2
# [17] = +HHIA 6.25 µg/mL, read-out: IPM MIC
# [18] = +HHIA 6.25 μg/mL, read-out: MPM MIC
# [19] = +HHIA 25 µg/mL, read-out: IPM MIC
# [20] = +HHIA 25 μg/mL, read-out: MPM MIC
# [21] = +HHIA 100 µg/mL, read-out: IPM MIC
# [22] = +HHIA 100 μg/mL, read-out: MPM MIC
# T1 sequence (P52699 19-246, looked up, species assumed): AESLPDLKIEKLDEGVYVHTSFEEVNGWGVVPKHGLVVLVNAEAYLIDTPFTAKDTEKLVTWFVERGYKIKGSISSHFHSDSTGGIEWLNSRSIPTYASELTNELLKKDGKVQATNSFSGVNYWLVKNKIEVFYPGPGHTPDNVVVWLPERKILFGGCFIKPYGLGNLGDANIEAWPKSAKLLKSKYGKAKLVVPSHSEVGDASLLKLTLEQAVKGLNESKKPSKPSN
compound,measurement,setting,value
"C=C(C(=O)O)C(CCCCC(C)O)C(=O)O (stereo not shown) [9-HHIA, 9-hydroxyhexylitaconic acid]",Melting temperature (Tm) of treated IMP-1,[1],54.9 °C
same,Inhibition of hydrolyzing activity of SMB-1,[2],did not inhibit
same,Inhibitory activity against VIM-2,[3],moderate
same,Ki,[4],27.8 µM
same,MIC,[5]; [17],64 µg/mL
same,MIC,[5]; [18],> 64 µg/mL
same,MIC,[5]; [19],32 µg/mL
same,MIC,[5]; [20],> 64 µg/mL
same,MIC,[5]; [21],32 µg/mL
same,MIC,[5]; [22],64 µg/mL
same,MIC,"[6]; +HHIA 6.25 µg/mL, E. coli NUBL-24 (IMP-1), read-out: IPM MIC",4 µg/mL
same,MIC,"[6]; +HHIA 6.25 μg/mL, E. coli NUBL-24 (IMP-1), read-out: MPM MIC",4 µg/mL
same,MIC,"[6]; +HHIA 25 µg/mL, E. coli NUBL-24 (IMP-1), read-out: IPM MIC",2 µg/mL
same,MIC,"[6]; +HHIA 25 μg/mL, E. coli NUBL-24 (IMP-1), read-out: MPM MIC",0.5 µg/mL
same,MIC,"[6]; +HHIA 100 µg/mL, E. coli NUBL-24 (IMP-1), read-out: IPM MIC",1 µg/mL
same,MIC,[6]; read-out: MPM MIC,0.125 µg/mL
same,MIC,[7]; [17],16 µg/mL
same,MIC,[7]; [18],32 µg/mL
same,MIC,[7]; [19],8 µg/mL
same,MIC,[7]; [20],8 µg/mL
same,MIC,[7]; [21],2 µg/mL
same,MIC,[7]; [22],0.5 µg/mL
same,MIC,[8]; [17],> 64 µg/mL
same,MIC,[8]; [18],> 64 µg/mL
same,MIC,[8]; [19],> 64 µg/mL
same,MIC,[8]; [20],> 64 µg/mL
same,MIC,[8]; [21],> 64 µg/mL
same,MIC,[8]; [22],32 µg/mL
same,MIC,[9]; [17],4 µg/mL
same,MIC,[9]; [18],8 µg/mL
same,MIC,[9]; [19],2 µg/mL
same,MIC,[9]; [20],2 µg/mL
same,MIC,[9]; [21],0.5 µg/mL
same,MIC,[9]; [22],0.25 µg/mL
same,MIC,[10]; [17],2 µg/mL
same,MIC,[10]; [18],16 µg/mL
same,MIC,[10]; [19],4 µg/mL
same,MIC,[10]; [20],4 µg/mL
same,MIC,[10]; [21],1 µg/mL
same,MIC,[10]; [22],0.5 µg/mL
same,MIC,[11]; [17],32 µg/mL
same,MIC,[11]; [18],32 µg/mL
same,MIC,[11]; [19],32 µg/mL
same,MIC,[11]; [20],32 µg/mL
same,MIC,[11]; [21],32 µg/mL
same,MIC,[11]; [22],32 µg/mL
same,MIC,[12]; [17],2 µg/mL
same,MIC,[12]; [18],16 µg/mL
same,MIC,[12]; [19],1 µg/mL
same,MIC,[12]; [20],16 µg/mL
same,MIC,[12]; [21],0.5 µg/mL
same,MIC,[12]; [22],4 µg/mL
same,MIC,[13]; [17],8 µg/mL
same,MIC,[13]; [18],32 µg/mL
same,MIC,[13]; [19],4 µg/mL
same,MIC,[13]; [20],16 µg/mL
same,MIC,[13]; [21],2 µg/mL
same,MIC,[13]; [22],4 µg/mL
same,MIC,[14]; [17],8 µg/mL
same,MIC,[14]; [18],8 µg/mL
same,MIC,[14]; [19],4 µg/mL
same,MIC,[14]; [20],4 µg/mL
same,MIC,[14]; [21],2 µg/mL
same,MIC,[14]; [22],0.25 µg/mL
same,MIC,[15]; [17],8 µg/mL
same,MIC,[15]; [18],16 µg/mL
same,MIC,[15]; [19],4 µg/mL
same,MIC,[15]; [20],16 µg/mL
same,MIC,[15]; [21],2 µg/mL
same,MIC,[15]; [22],8 µg/mL
same,MIC,[16]; [17],0.5 µg/mL
same,MIC,[16]; [18],32 µg/mL
same,MIC,[16]; [19],0.5 µg/mL
same,MIC,[16]; [20],16 µg/mL
same,MIC,[16]; [21],0.5 µg/mL
same,MIC,[16]; [22],0.5 µg/mL
